Key:
[1] = test system: whole knee joints of Has1KO mice with patellar groove cartilage injury; experiment: Whole joint gene expression (TAQMAN qPCR, RT2 Profiler NF-κB and Fibrosis arrays) after cartilage injury; format: in vivo
Protocol: (§1) Under approved IACUC protocols, a confined non-bleeding cartilage injury was created in the patellar groove of the right legs of 12-wk old male WT and Has1KO (C57Bl6) mice. Pirfenidone was provided in the chow (5 mg/g, Harlan) starting 3 days after surgery, and mice ingested about 600 mg pirfenidone/kg body weight daily. Joint tissue pathology was evaluated by photography of joint tissue surfaces after India Ink application (FIG. 1) and by histology of the intact joint with Safranin-O and Masson's Trichrome stained sections (FIG. 2.) For gene expression studies, skin and muscle was removed and whole knee joints were stored in RNALater. Inventoried TAQMAN® probes for Gapdh, Has2, Tnfaip6, Col1a1, Col3a1 and Vcan V2 were used to measure expression at 0, 7, 14, and 28 days post-injury, and Qiagen RT2 Profiler PCR Assay mouse arrays for NF-κB (PAMM-225ZA) and Fibrosis (PAMM-120ZA) pathways were used to assay whole joints at 21-28 days after injury, with and without pirfenidone treatment. Relative mRNA abundance was calculated as 1000×2−ΔCt, with ΔCt defined as Ct of the gene of interest minus Ct of Gapdh. Fold change was defined as abundance at a time point divided by abundance in the naïve condition for the same genotype.

[2] = test system: Has1KO mice with patellar groove cartilage injury; experiment: Joint tissue pathology by histology (Safranin-O, Masson's Trichrome) after cartilage injury; format: in vivo
Protocol: as §1
In the same way, the effects on expression of pro-inflammatory and pro-fibrotic genes were accompanied by profound effects on tissue pathology. A histologic examination of sagittal sections across the entire joint was done on 3 mice from each group.

injured Has1KO joints = experiment: Micro-computed Tomography of bone structure after cartilage injury; format: in vivo, mice; conditions: femur posterior to trochlear groove, day 28
Text: The effect of pirfenidone administration on bone structure was examined using Micro-computed Tomography (micro-CT) to identify bone differences (FIG. 7). The regions of interest examined included the trabecular bone in the femur directly posterior to the trochlear groove, where the defect was created (FIG. 8) and the cortical bone of the femoral midshaft (FIG. 9.) The trabecular bone parameters, obtained using micro-CT, indicate a recovery in injured Has1KO joints of bone-to-total volume, connectivity density, trabecular number, trabecular thickness, and trabecular separation to naive levels, surpassing even injured WT in bone recovery, and are shown in FIG. 10.

[3] = 24 day drug treatment post injury
[4] = sagittal sections across entire joint, 3 mice per group

In the case of `Cc1ccc(=O)n(-c2ccccc2)c1` [pirfenidone, 5-methyl-1-phenylpyridin-2-one], the “activation of anti-apoptotic, anti-fibrotic and matrix remodeling genes (Sod2, Ccl12, Il13ra2, Serpine1, Timp1)” value [1, 3] is reported as “enhanced”, the “expression of genes in the Nf-κB and Fibrosis pathways (arrays of 84 genes each)” value [1, 3] is reported as “marked effect” and the “expression of genes linked to the aberrant wound healing responses” value ([1]; pirfenidone in chow 5 mg/g (about 600 mg/kg daily) from 3 days after surgery, whole joint) is reported as “normalized”. For the same molecule, the “Has2 expression (delayed and more prolonged than in WT)” value ([1]; pirfenidone in chow, whole joint) was “normalized”, the “Tnfaip6 expression (enhanced at 2 weeks in Has1KO)” value ([1]; pirfenidone in chow, whole joint, 2 weeks) was “normalized” and the “Vcan V2 expression (markedly inhibited in Has1KO)” value ([1]; pirfenidone in chow, whole joint, 7 days) was “inhibition was corrected”. For the same molecule, the “loss of cartilage and subchondral bone in the joint after cartilage injury” value ([2]; Has1KO, 4 weeks post-injury, Safranin-O stained) was “reduces”, the “Safranin-O staining in the cartilages (including growth plates)” value [2, 4] was “marked enhancement” and the “appearance of fibrotic tissues” value [2, 4] was “blocked”. For the same molecule, the “trabecular bone parameters (bone-to-total volume, connectivity density, trabecular number, thickness, separation)” value (injured Has1KO joints) was “recovery”.
